Measurements: article PMC10165273, “Itch receptor MRGPRX4 interacts with the receptor activity–modifying proteins” (The Journal of Biological Chemistry, 2023)
Several values for one entry are separate records, joined by “and”; a condition that tells them apart may be missing. Equal entries are not always repeated. Where two headings read alike, the source gives them in different places.

Columns and labels:
MRGPRX4 + RAMP1 = target: T1, MRGPRX4 + RAMP1 (Homo sapiens, UniProt Q96LA9); assay: IP1 accumulation, MRGPRX4 coexpressed with RAMP1; format: cell-based; set-up: key to IP1 Basal / response to agonist, X4:ramp1.I:1 / response to agonist, X4:ramp1.I:2 / response to agonist, X4:ramp1.I:0.25 / response to agonist, X4:ramp1.I:0.5: % IP1; unstimulated mock = 0%, fully stimulated MRGPRX4 = 100%; conditions: for activation at 100 µM / activation at 20 µM / activation at 0.8 µM / activation at […] / activation at 0.032 µM / activation at 4 µM: 2 h, Fig S3d, read-out: IP1 accumulation; for activation at 100 µM: log [DCA] (M) -4; for activation at 20 µM: log [DCA] (M) -4.69897; for activation at 0.8 µM: log [DCA] (M) -6.09691; for activation at […]: log [DCA] (M) -6.79588; for activation at 0.032 µM: log [DCA] (M) -7.49485; for activation at 4 µM: log [DCA] (M) -5.39794
T1 construct: expressed in transfected cells; host or cells: HEK293T
T1 sequence (Q96LA9 whole entry): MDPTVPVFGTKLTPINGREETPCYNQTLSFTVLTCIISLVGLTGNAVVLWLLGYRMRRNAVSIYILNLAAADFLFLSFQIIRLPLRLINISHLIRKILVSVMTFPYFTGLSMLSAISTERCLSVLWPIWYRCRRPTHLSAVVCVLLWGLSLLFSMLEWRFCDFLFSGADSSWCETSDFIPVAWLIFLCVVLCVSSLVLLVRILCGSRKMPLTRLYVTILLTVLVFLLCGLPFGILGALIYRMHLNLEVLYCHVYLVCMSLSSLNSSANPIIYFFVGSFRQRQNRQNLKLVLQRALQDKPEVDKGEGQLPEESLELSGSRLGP
Method: (§1) HEK293T cells were transfected with 1 pg/cell of MRGPRX4 DNA, and the amount of DNA was kept constant at 2 pg/cell with pcDNA3.1(+) empty vector, unless otherwise specified. Twenty four hours after transfection, IP1 assay was performed as previously described ([51]). When applicable, cells were treated with 1 μM YM254890 (YM) or different concentrations of U73122 for 1 h prior to addition of agonist or buffer. After incubation for 2 h, HTRF reagents and IP1 calibration standards were added and incubated for 2 h in the dark at room temperature. Time-resolved fluorescence signals were read on the BioTek Synergy NEO-TRF Hybrid multi-mode reader (BioTek Instruments). All data were carried out in three independent experiments with three technical replicate each.
For a homogenous transfection of MRGPRX4, a master mix of MRGPRX4 DNA was made prior to addition of the RAMP DNA. […]
(§2) Data reduction, standard calibration, and transformation of HTRF data were performed as previously described ([51]). Normalized IP1 values were calculated relative to the unstimulated mock-transfected cells (set to 0%) and fully stimulated MRGPRX4 (alone if applicable) (set to 100%).

MRGPRX4 + RAMP3 = target: T2, MRGPRX4 + RAMP3 (Homo sapiens, UniProt Q96LA9); assay: IP1 accumulation, MRGPRX4 coexpressed with RAMP3; format: cell-based; conditions: 2 h, ratio MRGPRX4:RAMP3 1:0.25, Fig S3f, read-out: IP1 accumulation
T2 construct: expressed in transfected cells; host or cells: HEK293T
T2 sequence (Q96LA9 whole entry): as above
Method: as §1
For RAMP DNA titration assay, HEK293T cells were cotransfected with a constant amount of 1 pg/cell of FLAG-MRGPRX4-GFP10-1D4 to which a serial dilution of 1, 0.75, 0.5, 0.25, or 0 pg/cell of each HA-RAMP-OLLAS was added. For a homogenous transfection of MRGPRX4, a master mix of MRGPRX4 DNA was made prior to addition of the RAMP DNA. […]
as §2

Compound: C[C@H](CCC(=O)O)[C@H]1CC[C@H]2[C@@H]3CC[C@@H]4C[C@H](O)CC[C@]4(C)[C@H]3C[C@H](O)[C@]12C [DCA, deoxycholic acid]
- activation at 100 µM (MRGPRX4 + RAMP1; ratio MRGPRX4:RAMP1 1:0.25): 91.8%
- activation at 20 µM (MRGPRX4 + RAMP1; ratio MRGPRX4:RAMP1 1:0.25): 80.7%
- activation at 0.8 µM (MRGPRX4 + RAMP1; ratio MRGPRX4:RAMP1 1:0.25): 27.4%
- activation at […] (MRGPRX4 + RAMP1; ratio MRGPRX4:RAMP1 1:0.25): 30.3%
- activation at 0.032 µM (MRGPRX4 + RAMP1; ratio MRGPRX4:RAMP1 1:0.25): 28.5%
- activation at 100 µM (MRGPRX4 + RAMP1; ratio MRGPRX4:RAMP1 1:0.5): 103%
- activation at 20 µM (MRGPRX4 + RAMP1; ratio MRGPRX4:RAMP1 1:0.5): 62.7%
- activation at 4 µM (MRGPRX4 + RAMP1; ratio MRGPRX4:RAMP1 1:0.5): 38.6%
- activation at 0.8 µM (MRGPRX4 + RAMP1; ratio MRGPRX4:RAMP1 1:0.5): 26.5%
- activation at […] (MRGPRX4 + RAMP1; ratio MRGPRX4:RAMP1 1:0.5): 22.5%
- activation at 0.032 µM (MRGPRX4 + RAMP1; ratio MRGPRX4:RAMP1 1:0.5): 22.6%
- activation at 20 µM (MRGPRX4 + RAMP1; ratio MRGPRX4:RAMP1 1:1): 61.5%
- activation at 4 µM (MRGPRX4 + RAMP1; ratio MRGPRX4:RAMP1 1:1): 34.6%
- activation at 0.8 µM (MRGPRX4 + RAMP1; ratio MRGPRX4:RAMP1 1:1): 30.1%
- activation at […] (MRGPRX4 + RAMP1; ratio MRGPRX4:RAMP1 1:1): 22.8%
- activation at 20 µM (MRGPRX4 + RAMP1; ratio MRGPRX4:RAMP1 1:2): 59.4%
- activation at 4 µM (MRGPRX4 + RAMP1; ratio MRGPRX4:RAMP1 1:2): 29.7%
- activation at 0.8 µM (MRGPRX4 + RAMP1; ratio MRGPRX4:RAMP1 1:2): 22%
- activation at […] (MRGPRX4 + RAMP1; ratio MRGPRX4:RAMP1 1:2): 15.8%
- Emax (MRGPRX4 + RAMP1; Figure 4a bottom, DNA ratio MRGPRX4:RAMP1 1:0.5, MRGPRX4 alone = 100, read-out: efficacy): 109%
- response to agonist, X4:ramp1.I:0.25 (MRGPRX4 + RAMP1; Figure 4c-f, agonist 100µM, X4:ramp1 1:0.25, MRGPRX4 = 100): 100.247 and 94.5976
- response to agonist, X4:ramp1.I:0.5 (MRGPRX4 + RAMP1; Figure 4c-f, agonist 100µM, X4:ramp1 1:0.5, MRGPRX4 = 100): 101.591 and 94.608
- response to agonist, X4:ramp1.I:1 (MRGPRX4 + RAMP1; Figure 4c-f, agonist 100µM, X4:ramp1 1:1, MRGPRX4 = 100): 97.7538 and 86.0836
- response to agonist, X4:ramp1.I:2 (MRGPRX4 + RAMP1; Figure 4c-f, agonist 100µM, X4:ramp1 1:2, MRGPRX4 = 100): 90.6013 and 100.616
- IP1 Basal (MRGPRX4 + RAMP1; MRGPRX4 + RAMP1 0.25 pg (Fig. S3), normalized per agonist): 25.16
- Emax (MRGPRX4 + RAMP1; MRGPRX4 + RAMP1 0.25 pg (Fig. S3), normalized per agonist, read-out: IP1 Emax): 113%
- Emax (MRGPRX4 + RAMP1; MRGPRX4 + RAMP1 0.25 pg (Fig. S3), normalized per agonist, read-out: IP1 span): 87.7%
- IP1 Basal (MRGPRX4 + RAMP1; MRGPRX4 + RAMP1 0.5 pg (Fig. S3), normalized per agonist): 24.94
- Emax (MRGPRX4 + RAMP1; MRGPRX4 + RAMP1 0.5 pg (Fig. S3), normalized per agonist, read-out: IP1 Emax): 117%
- Emax (MRGPRX4 + RAMP1; MRGPRX4 + RAMP1 0.5 pg (Fig. S3), normalized per agonist, read-out: IP1 span): 92%
- IP1 Basal (MRGPRX4 + RAMP1; MRGPRX4 + RAMP1 1 pg (Fig. S3), normalized per agonist): 22.25
- Emax (MRGPRX4 + RAMP1; MRGPRX4 + RAMP1 1 pg (Fig. S3), normalized per agonist, read-out: IP1 Emax): 118%
- Emax (MRGPRX4 + RAMP1; MRGPRX4 + RAMP1 1 pg (Fig. S3), normalized per agonist, read-out: IP1 span): 95.8%
- IP1 Basal (MRGPRX4 + RAMP1; MRGPRX4 + RAMP1 2 pg (Fig. S3), normalized per agonist): 17.30
- Emax (MRGPRX4 + RAMP1; MRGPRX4 + RAMP1 2 pg (Fig. S3), normalized per agonist, read-out: IP1 Emax): 112%
- Emax (MRGPRX4 + RAMP1; MRGPRX4 + RAMP1 2 pg (Fig. S3), normalized per agonist, read-out: IP1 span): 94.5%
- activation at 100 µM (MRGPRX4 + RAMP3; log [DCA] (M) -4): 92.7%
- activation at 20 µM (MRGPRX4 + RAMP3; log [DCA] (M) -4.69897): 69.5%
- activation at 4 µM (MRGPRX4 + RAMP3; log [DCA] (M) -5.39794): 48.4%
- activation at 0.8 µM (MRGPRX4 + RAMP3; log [DCA] (M) -6.09691): 35.7%
- activation at […] (MRGPRX4 + RAMP3; log [DCA] (M) -6.79588): 34.1%
